Molecules are shown by their SMILES.

The values below come from publication PMC8653149, “Cyclic Analogs of Desferrioxamine E Siderophore for ^68Ga Nuclear Imaging: Coordination Chemistry and Biological Activity in Staphylococcus aureus” (Inorganic Chemistry, 2021).

The nature of data set [1]: Ga(III) complex stability constants by Fe(III)–Ga(III) metal–metal competition, potentiometric and UV–vis pH-metric titrations. Format: physicochemical. The settings on record: for pGa(III): calculated, pH 7.4; for logβ[GaHL]+: competition UV-Vis titrations; for logβ[GaHL]+ / logβ[GaL]: M:L 1:1, T = 25°C; for logβ[GaHL]+ / logβ[GaL] / pKNHOH (pK of [GaL] formation from [GaHL]+): I = 0.1 M NaClO4; for pKNHOH (pK of [GaL] formation from [GaHL]+): T = 25 °C. The text has this: The next step was to determine the coordination specificity of investigated ligands toward Ga(III) ions. This is a somewhat challenging task because it requires indirect methods since the investigated complexes started to form in a very acidic environment, where potentiometric measurements were not accurate owing to the error of the glass electrode,[55],[56] and gallium is spectroscopically silent in UV–vis. To bypass this inconvenience, we implemented metal–metal competition assays. After addition of a significant molar excess of Ga(III), the LMCT band of Fe(III)-FOXE analog complexes was almost fully silenced as Ga(III) replaced Fe(III) in its complexes (Figure S5). By implementing those spectral changes, we were able to calculate the stability constants of the Ga(III)-FOXE analog species present below or around pH 2, [GaHL]^+ (Table S8). Stability constants for the [GaL] species, present above pH 2, could be determined by potentiometric titrations for Ga(III)-FOX 2-2, 2-3, 2-4, and 3-5, with logβ of [GaHL]^+ fixed in the calculations (Table S8). For Ga(III)-FOX 2-5, we could not observe any deprotonation step using this methodology. To confirm this behavior, UV–vis titration of the Ga(III)-FOX 2-5 analog complex was performed in the 200–300 nm spectral range (Figure S6) corresponding to the hydroxamate groups’ protonation state.[57]−[59] […] Above pH 4, there were no significant changes in maxima localization or absorbance intensity. Above pH 9, absorbance started to rise again, which indicated complex dissociation. […] Overall, the data indicated a decreased stability of [GaL] species when decreasing or increasing the ring size of Ga(III)-FOX 2-5, as reflected by pKNHOH (Table S8). Implementing this full coordination specification of Ga(III)-FOX complexes, we were able to calculate speciation plots which are presented in Figure 1 for the most efficient analogs FOX 2-4 and FOX 2-5, given here as examples, and in Figure S7 for others.
Proposed biomimetic analogs of cyclic siderophore FOXE bind Fe(III) ions starting from pH around 0, and the complexation is essentially complete far below or around pH of 2. Therefore, the stability constants of the first species formed in solution were determined from the spectrophotometric pH-dependent batch titrations carried out in the pH range of around 0.1–2 (Figure S3), by following the changes in the intense LMCT band of the metal complex. These values were further used as constant values in spectrophotometric or potentiometric titrations carried out in the pH range from 2 to 11 (Figure S3) to get the overall stability constants, logβFeL (Table S5). Since Ga(III)-FOX complexes present similar coordination properties, the first species start to form below pH 2 as well. However, in this case, we have used indirect methods to determine stability constants for Ga(III)-FOXE analogs and the Ga(III) complex with native FOXE, as Ga(III) complexes are spectroscopically silent in the UV–vis region. Metal–metal competition titrations were carried out at pH 1.6 for FOX 2-5 and FOX 2-4 and at pH 2 for the rest of the analogs and the native compound. The intense LMCT band of the Fe(III) complex was silenced after addition of a fixed volume of Ga(III) ions (Figure S5).
(§1) Potentiometric titrations were performed using an automatic titrator system Titrando 905 (Metrohm) equipped with a 800 Dosino dosing unit and a microburet with a volume of 2 mL. A combined glass electrode was calibrated each day for hydrogen ion concentration by 0.1 M HClO4 with CO2-free 0.1 M NaOH solutions. A stream of high purity grade argon, presaturated with water vapor, passed over the surface of the solution cell, filled with 3 mL of the studied solution. For each system, a minimum of four independent titrations was performed. […]

Data set [2] can be described thus: Ligand protonation constants by potentiometric titration. Type of data set: physicochemical. The settings on record: [L] = 1·10^-3 M, T = 25°C, I = 0.1 M NaClO4. As for the experimental part: as §1, with “performed. The purity of ligand and accurate concentration of ligand solution were determined before each experiment with the Gran method[68] by potentiometric titration of the 3 mL sample of the ligand, with [L] ∼ 1 × 10^–3 M. In separate potentiometric titrations, the metal-to-ligand ratio was 1:1, and the concentration of metal was 2 × 10^–3 M. The potentiometric data were refined to obtain the overall Fe(III)-FOXE and Ga(III)-FOXE derivative binding constants (logβFe(III)L, logβGa(III)L).” for “performed.”
Ligand’s protonation constants
The acid-base properties of investigated ligands were studied by potentiometric technique. The optimized logβ values defined by equations (S1) and (S2) were calculated using […] 1 […]
or Hyperquad 20062 programs (Table S4). For the sake of simplicity charges are omitted in all chemical equilibria given here.
Table S4. Protonation (logβ H) constants for studied ligandsa […]
aConstants determined from potentiometric titrations. Conditions: [L] = 1·10^-3 M, T = 25°C, I = 0.1 M NaClO 4, b Ref 3 […]

[3] abbreviates: potentiometric, [L] = 1·10^-3 M.

In the case of `O=C1CCN(O)C(=O)CCNC(=O)CCN(O)C(=O)CCNC(=O)CCN(O)C(=O)CCN1` [FOX 2-2], the “pGa(III)” value in data set [1] is 21.4. In data set [1] ([L] = 1·10^-4 M), the “logβ[GaHL]+” value is on record as 28.48 (4). Further, the “logβ[GaL]” value in data set [1] (setting [3]) was 26.52 (5). In data set [2], the “protonation constant logβ, H2L + H+ ↔ H3L” value is listed as 27.62(2); the “protonation constant logβ, HL + H+ ↔ H2L” value is 19.28(1); the “protonation constant logβ, L + H+ ↔ HL” value was 9.97(1).
Regarding `O=C1CCCN(O)C(=O)CCNC(=O)CCCN(O)C(=O)CCNC(=O)CCCN(O)C(=O)CCN1` [FOX 2-3], in data set [1], the “pKNHOH (pK of [GaL] formation from [GaHL]+)” value (“pKNHOH” for short) turned out to be 2.28 and the “pGa(III)” value is 20.8. Besides, the “logβ[GaHL]+” value in data set [1] ([L] = 1·10^-4 M) was 28.30 (4). In addition, in data set [1] (setting [3]), the “logβ[GaL]” value is 26.02 (1). Also, in data set [2], the “protonation constant logβ, H2L + H+ ↔ H3L” value is reported as 27.71(1); the “protonation constant logβ, HL + H+ ↔ H2L” value is reported as 19.27(1); the “protonation constant logβ, L + H+ ↔ HL” value was 9.94(1).
With `O=C1CCCCN(O)C(=O)CCNC(=O)CCCCN(O)C(=O)CCNC(=O)CCCCN(O)C(=O)CCN1` [FOX 2-4], in data set [1], the “pKNHOH” value amounted to 2.56 and the “pGa(III)” value is reported as 21.8. In addition, in data set [1] ([L] = 1·10^-4 M), the “logβ[GaHL]+” value is recorded as 28.84 (5). Besides, the “logβ[GaL]” value in data set [1] (setting [3]) is listed as 26.28 (1). Further, in data set [2], the “protonation constant logβ, H2L + H+ ↔ H3L” value is given as 27.64(1); the “protonation constant logβ, HL + H+ ↔ H2L” value is listed as 19.21(1); the “protonation constant logβ, L + H+ ↔ HL” value was 9.93(1).
Turning to `O=C1CCCCCN(O)C(=O)CCNC(=O)CCCCCN(O)C(=O)CCNC(=O)CCCCCN(O)C(=O)CCN1` [FOX 2-5], the “logβ[GaL]” value in data set [1] (UV-Vis (metal–metal competition) titrations, [L] = 1·10^-4 M) is 29.52 (6). Moreover, the “pGa(III)” value in data set [1] was 25.2. In data set [2], the “protonation constant logβ, H2L + H+ ↔ H3L” value is given as 26.53(1); the “protonation constant logβ, HL + H+ ↔ H2L” value was 19.09(1); the “protonation constant logβ, L + H+ ↔ HL” value was 9.86(1).
On to `O=C1CCCCCN(O)C(=O)CCCNC(=O)CCCCCN(O)C(=O)CCCNC(=O)CCCCCN(O)C(=O)CCCN1` [FOX 3-5], for which, in data set [1], the “pKNHOH” value was found to be 2.87 and the “pGa(III)” value is 22.6. Moreover, the “logβ[GaHL]+” value in data set [1] ([L] = 1·10^-4 M) was 29.45 (1). Further, in data set [1] (setting [3]), the “logβ[GaL]” value is reported as 26.58 (4). Further, in data set [2], the “protonation constant logβ, H2L + H+ ↔ H3L” value is given as 27.79(1); the “protonation constant logβ, HL + H+ ↔ H2L” value is reported as 19.53(1); the “protonation constant logβ, L + H+ ↔ HL” value is 10.19(1).
